Measured values published in patent US7063946B2, “Methods, reagents, kits and apparatus for protein function analysis” (Meso Scale Technologies, LLC., priority 2001, dated 2006).

Experiments:
Experiment in all cases: Kinase inhibitor profiling, pEY phosphorylation
Type in all cases: biochemical
[1] = target: T1, BMX (Homo sapiens, UniProt P51813)
T1 construct: specificity data for proteins generated from a library of eighteen full-length clones; host or cells: rabbit reticulocyte lysate, TnT coupled in vitro transcription/translation (cell-free)
T1 sequence (P51813 1-675): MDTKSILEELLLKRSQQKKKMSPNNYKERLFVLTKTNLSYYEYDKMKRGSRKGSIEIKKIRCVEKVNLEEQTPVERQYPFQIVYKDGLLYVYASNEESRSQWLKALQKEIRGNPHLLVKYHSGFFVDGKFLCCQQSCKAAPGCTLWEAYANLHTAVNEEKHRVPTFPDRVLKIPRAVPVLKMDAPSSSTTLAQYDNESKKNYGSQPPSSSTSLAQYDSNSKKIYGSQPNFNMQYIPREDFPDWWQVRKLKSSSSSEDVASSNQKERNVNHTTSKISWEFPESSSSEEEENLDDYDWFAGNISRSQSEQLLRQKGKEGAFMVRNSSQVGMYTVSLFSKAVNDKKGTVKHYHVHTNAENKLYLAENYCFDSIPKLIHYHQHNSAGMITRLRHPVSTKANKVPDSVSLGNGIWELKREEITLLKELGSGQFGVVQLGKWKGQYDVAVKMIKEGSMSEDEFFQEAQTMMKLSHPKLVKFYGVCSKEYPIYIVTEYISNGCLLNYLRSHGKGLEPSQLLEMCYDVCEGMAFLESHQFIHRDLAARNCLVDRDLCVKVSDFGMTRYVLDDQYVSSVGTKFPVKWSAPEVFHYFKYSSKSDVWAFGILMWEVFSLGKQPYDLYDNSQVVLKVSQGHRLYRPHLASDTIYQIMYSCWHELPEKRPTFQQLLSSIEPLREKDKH

[2] = target: T2, CSK (Homo sapiens, UniProt P41240)
T2 construct: specificity data for proteins generated from a library of eighteen full-length clones; host or cells: rabbit reticulocyte lysate, TnT coupled in vitro transcription/translation (cell-free)
T2 sequence (P41240 whole entry): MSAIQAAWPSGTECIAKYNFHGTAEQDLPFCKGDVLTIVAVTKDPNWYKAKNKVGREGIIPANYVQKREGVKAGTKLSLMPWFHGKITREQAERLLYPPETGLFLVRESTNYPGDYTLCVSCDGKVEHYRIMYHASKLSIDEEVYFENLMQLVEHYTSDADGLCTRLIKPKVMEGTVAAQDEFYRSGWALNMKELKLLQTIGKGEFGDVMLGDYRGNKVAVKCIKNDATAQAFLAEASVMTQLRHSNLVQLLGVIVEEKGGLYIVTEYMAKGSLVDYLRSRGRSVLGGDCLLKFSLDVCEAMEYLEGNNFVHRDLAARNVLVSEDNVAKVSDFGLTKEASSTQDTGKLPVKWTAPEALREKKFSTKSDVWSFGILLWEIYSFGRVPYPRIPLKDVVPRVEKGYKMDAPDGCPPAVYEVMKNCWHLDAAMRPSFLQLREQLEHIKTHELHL

[3] = target: T3, Epha7 (Mus musculus, UniProt Q61772)
T3 construct: autophosphorylation activity from full-length clones Spleen Tyrosine Kinase (SYK) and Eph receptor-A7 (EphA7); host or cells: rabbit reticulocyte lysate, TnT coupled in vitro transcription/translation (cell-free)
T3 sequence (Q61772 28-998): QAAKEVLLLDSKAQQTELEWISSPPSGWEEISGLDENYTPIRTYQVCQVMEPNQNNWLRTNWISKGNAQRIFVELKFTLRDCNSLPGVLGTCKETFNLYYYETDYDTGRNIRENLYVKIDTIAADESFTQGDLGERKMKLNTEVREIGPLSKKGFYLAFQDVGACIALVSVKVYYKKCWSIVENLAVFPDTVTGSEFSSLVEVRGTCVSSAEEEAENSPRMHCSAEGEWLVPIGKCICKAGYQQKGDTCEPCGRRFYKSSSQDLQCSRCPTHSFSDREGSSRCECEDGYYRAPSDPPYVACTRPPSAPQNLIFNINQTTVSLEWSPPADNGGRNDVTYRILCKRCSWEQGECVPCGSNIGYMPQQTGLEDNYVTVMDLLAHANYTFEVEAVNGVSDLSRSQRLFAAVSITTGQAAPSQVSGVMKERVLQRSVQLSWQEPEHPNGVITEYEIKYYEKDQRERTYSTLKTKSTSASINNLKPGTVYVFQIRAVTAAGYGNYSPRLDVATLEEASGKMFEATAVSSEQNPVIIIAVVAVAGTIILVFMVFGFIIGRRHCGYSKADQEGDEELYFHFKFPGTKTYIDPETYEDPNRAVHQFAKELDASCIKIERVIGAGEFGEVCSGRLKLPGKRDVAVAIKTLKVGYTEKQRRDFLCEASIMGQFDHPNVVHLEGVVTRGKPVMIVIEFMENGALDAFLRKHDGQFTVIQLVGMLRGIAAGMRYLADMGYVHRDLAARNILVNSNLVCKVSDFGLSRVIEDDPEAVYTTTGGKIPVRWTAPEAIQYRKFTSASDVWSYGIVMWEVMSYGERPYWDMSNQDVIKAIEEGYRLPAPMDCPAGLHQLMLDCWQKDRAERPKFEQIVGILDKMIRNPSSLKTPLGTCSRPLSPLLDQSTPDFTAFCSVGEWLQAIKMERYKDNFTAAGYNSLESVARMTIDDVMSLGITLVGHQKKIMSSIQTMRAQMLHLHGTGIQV

[4] = target: T4, HCK (Homo sapiens, UniProt P08631)
T4 construct: specificity data for proteins generated from a library of eighteen full-length clones; host or cells: rabbit reticulocyte lysate, TnT coupled in vitro transcription/translation (cell-free)
T4 sequence (P08631 whole entry): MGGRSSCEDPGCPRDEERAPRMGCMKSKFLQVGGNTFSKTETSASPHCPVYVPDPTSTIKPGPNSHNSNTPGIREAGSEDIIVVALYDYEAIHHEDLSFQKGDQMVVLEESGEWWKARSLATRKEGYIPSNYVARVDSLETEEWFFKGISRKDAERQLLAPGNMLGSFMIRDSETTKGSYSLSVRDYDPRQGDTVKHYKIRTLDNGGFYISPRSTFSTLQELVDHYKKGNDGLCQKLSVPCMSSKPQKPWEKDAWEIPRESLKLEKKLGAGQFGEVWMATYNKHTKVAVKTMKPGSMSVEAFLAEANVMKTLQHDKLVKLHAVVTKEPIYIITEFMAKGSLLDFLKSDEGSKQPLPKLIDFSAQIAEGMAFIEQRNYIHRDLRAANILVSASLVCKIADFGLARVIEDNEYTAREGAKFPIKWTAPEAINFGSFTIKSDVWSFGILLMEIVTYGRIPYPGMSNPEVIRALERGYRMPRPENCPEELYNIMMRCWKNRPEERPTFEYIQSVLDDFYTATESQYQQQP

[5] = target: T5, PTK2B (Homo sapiens, UniProt Q14289)
T5 construct: specificity data for proteins generated from a library of eighteen full-length clones; host or cells: rabbit reticulocyte lysate, TnT coupled in vitro transcription/translation (cell-free)
T5 sequence (Q14289 whole entry): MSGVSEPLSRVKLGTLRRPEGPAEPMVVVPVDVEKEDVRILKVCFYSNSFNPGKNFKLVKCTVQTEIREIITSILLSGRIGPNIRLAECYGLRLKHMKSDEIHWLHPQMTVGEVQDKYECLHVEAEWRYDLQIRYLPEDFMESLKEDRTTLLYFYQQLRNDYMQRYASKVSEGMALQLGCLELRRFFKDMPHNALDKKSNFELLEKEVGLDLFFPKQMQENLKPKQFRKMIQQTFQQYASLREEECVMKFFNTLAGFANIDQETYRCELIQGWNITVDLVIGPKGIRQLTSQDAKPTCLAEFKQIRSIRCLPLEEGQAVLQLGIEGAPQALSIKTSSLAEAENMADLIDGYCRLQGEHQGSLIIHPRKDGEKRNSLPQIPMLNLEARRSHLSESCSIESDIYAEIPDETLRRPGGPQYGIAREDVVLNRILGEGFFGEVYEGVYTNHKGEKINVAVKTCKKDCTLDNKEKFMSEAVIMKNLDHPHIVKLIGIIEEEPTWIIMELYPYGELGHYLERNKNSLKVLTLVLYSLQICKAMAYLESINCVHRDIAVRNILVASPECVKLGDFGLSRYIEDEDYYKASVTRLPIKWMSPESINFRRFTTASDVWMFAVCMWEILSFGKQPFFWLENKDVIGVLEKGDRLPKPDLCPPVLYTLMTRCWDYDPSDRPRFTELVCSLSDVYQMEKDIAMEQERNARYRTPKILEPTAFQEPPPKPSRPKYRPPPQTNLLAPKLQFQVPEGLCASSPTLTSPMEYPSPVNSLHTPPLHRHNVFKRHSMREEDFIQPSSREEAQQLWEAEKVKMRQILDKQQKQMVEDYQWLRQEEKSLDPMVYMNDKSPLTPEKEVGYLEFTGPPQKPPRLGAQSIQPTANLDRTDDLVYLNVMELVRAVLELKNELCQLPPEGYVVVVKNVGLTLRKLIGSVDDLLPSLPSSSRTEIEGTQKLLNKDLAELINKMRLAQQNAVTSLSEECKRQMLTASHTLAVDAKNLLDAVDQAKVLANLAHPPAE

[6] = target: T6, SRC (Mus musculus, UniProt P05480)
T6 construct: specificity data for proteins generated from a library of eighteen full-length clones; host or cells: rabbit reticulocyte lysate, TnT coupled transcription/translation
T6 sequence (P05480 whole entry): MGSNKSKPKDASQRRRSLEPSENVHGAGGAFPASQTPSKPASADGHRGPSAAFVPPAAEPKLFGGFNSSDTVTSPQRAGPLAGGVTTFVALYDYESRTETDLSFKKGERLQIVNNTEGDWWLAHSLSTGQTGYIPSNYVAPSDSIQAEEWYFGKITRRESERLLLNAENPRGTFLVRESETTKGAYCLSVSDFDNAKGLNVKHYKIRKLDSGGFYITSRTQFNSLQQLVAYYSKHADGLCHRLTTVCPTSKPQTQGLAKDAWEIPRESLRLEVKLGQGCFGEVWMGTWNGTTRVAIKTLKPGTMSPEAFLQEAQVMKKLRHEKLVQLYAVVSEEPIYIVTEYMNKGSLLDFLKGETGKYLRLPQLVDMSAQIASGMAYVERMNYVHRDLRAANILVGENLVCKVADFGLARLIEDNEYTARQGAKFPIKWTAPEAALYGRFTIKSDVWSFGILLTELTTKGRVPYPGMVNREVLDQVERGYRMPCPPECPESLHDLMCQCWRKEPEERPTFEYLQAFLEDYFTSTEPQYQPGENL

[7] = target: T7, SYK (Homo sapiens, UniProt P43405)
T7 construct: autophosphorylation activity from full-length clones Spleen Tyrosine Kinase (SYK) and Eph receptor-A7 (EphA7); host or cells: rabbit reticulocyte lysate, TnT coupled in vitro transcription/translation (cell-free)

[8] = target: T8, Tek (Mus musculus, UniProt Q02858)
T8 construct: specificity data for proteins generated from a library of eighteen full-length clones; host or cells: rabbit reticulocyte lysate, TnT coupled in vitro transcription/translation (cell-free)
T8 sequence (Q02858 23-1122): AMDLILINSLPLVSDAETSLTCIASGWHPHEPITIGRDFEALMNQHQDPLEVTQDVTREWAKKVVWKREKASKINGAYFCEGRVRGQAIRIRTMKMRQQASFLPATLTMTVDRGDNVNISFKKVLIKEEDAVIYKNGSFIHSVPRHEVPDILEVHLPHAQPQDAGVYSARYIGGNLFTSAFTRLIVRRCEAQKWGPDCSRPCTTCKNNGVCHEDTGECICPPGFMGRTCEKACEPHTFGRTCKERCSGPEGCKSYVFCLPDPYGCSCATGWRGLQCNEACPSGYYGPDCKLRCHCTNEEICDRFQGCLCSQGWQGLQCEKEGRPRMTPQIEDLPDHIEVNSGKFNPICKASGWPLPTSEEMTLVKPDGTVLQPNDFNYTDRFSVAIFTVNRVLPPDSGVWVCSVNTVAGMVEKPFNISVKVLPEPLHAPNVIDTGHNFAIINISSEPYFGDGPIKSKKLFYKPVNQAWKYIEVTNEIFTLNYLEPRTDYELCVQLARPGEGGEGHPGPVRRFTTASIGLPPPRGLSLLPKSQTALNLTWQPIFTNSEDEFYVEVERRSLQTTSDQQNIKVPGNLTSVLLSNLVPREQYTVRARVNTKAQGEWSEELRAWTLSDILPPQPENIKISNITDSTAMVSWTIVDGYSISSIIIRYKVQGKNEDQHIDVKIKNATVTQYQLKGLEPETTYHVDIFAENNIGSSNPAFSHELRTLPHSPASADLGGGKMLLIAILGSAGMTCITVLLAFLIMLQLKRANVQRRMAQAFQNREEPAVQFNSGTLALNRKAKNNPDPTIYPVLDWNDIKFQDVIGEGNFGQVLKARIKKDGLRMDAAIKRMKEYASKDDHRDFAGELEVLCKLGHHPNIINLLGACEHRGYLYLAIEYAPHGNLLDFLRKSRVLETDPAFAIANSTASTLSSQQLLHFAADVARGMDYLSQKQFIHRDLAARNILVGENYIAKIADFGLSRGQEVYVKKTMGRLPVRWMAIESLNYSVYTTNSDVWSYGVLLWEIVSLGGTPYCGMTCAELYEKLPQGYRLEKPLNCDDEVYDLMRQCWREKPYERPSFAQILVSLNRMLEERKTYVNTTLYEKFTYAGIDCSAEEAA

| SMILES | Inhibition specificity towards pEY phosphorylation at 10X IC50, BMX [1] | Inhibition specificity towards pEY phosphorylation at 10X IC50, CSK [2] | Inhibition specificity towards pEY phosphorylation at 10X IC50, Epha7 [3] | Inhibition specificity towards pEY phosphorylation at 10X IC50, HCK [4] | Inhibition specificity towards pEY phosphorylation at 10X IC50, PTK2B [5] | Inhibition specificity towards pEY phosphorylation at 10X IC50, Src [6] | Inhibition specificity towards pEY phosphorylation at 10X IC50, SYK [7] | Inhibition specificity towards pEY phosphorylation at 10X IC50, Tek [8] |
| --- | --- | --- | --- | --- | --- | --- | --- | --- |
| Cc1ccc(-c2nn(C(C)(C)C)c3ncnc(N)c23)cc1 [PP1] | L (low inhibition (“L”=between 50–75% of the activity remaining)) |  |  |  |  |  |  |  |
| COc1c(C=O)c(O)cc2c1C(=O)c1ccccc1C2=O [Damnacanthal] | H (high inhibition (“H”=less than 25% of the activity remaining)) | H (high inhibition (“H”=less than 25% of the activity remaining)) | H (high inhibition (“H”=less than 25% of the activity remaining)) | H (high inhibition (“H”=less than 25% of the activity remaining)) | H (high inhibition (“H”=less than 25% of the activity remaining)) | H (high inhibition (“H”=less than 25% of the activity remaining)) | H (high inhibition (“H”=less than 25% of the activity remaining)) | M (medium inhibition (“M”=between 25 to 50% of the activity remaining)) |
| Cc1cc2ncc(-c3ccc(O)c(O)c3)nc2cc1C [AG-1433] | H (high inhibition (“H”=less than 25% of the activity remaining)) | M (medium inhibition (“M”=between 25 to 50% of the activity remaining)) | L (low inhibition (“L”=between 50–75% of the activity remaining)) | M (medium inhibition (“M”=between 25 to 50% of the activity remaining)) | L (low inhibition (“L”=between 50–75% of the activity remaining)) | H (high inhibition (“H”=less than 25% of the activity remaining)) | M (medium inhibition (“M”=between 25 to 50% of the activity remaining)) | M (medium inhibition (“M”=between 25 to 50% of the activity remaining)) |
| COc1cc2ncnc(Nc3ccc(O)cc3)c2cc1OC [WHI-P131] | L (low inhibition (“L”=between 50–75% of the activity remaining)) |  | L (low inhibition (“L”=between 50–75% of the activity remaining)) | L (low inhibition (“L”=between 50–75% of the activity remaining)) | L (low inhibition (“L”=between 50–75% of the activity remaining)) | L (low inhibition (“L”=between 50–75% of the activity remaining)) |  | L (low inhibition (“L”=between 50–75% of the activity remaining)) |
| CC(C)(C)c1cc(C=C(C#N)C#N)cc(Br)c1O [AG-1024] |  |  |  |  |  |  | L (low inhibition (“L”=between 50–75% of the activity remaining)) | L (low inhibition (“L”=between 50–75% of the activity remaining)) |
| COC(=O)c1ccc(NCc2cc(O)ccc2O)cc1 [AG-957] | L (low inhibition (“L”=between 50–75% of the activity remaining)) | M (medium inhibition (“M”=between 25 to 50% of the activity remaining)) |  |  |  |  |  | L (low inhibition (“L”=between 50–75% of the activity remaining)) |
